Test results as given in patent US4748161A, “Triterpenyl esters of organic acids and hypolipidemic agents composed of them” (Amano Pharmaceutical Co., Ltd., priority 1984, dated 1988).
Like-named read-outs stand apart in the source and are kept apart here.

Tests used:
[1] = test system: serum lipids and serum lipid hydroperoxide; experiment: Pharmacological test method B for anti-hyperlipidemic activity (serum lipids, 4 weeks feeding); type: in vivo, male Wistar strain rats; parameters: AI Diff.: unit not given here; settings: for AI [(TC - HDL-C)/(HDL-C)] / HDL-C in serum / LPO in serum / PL in serum / TC in serum / TG in serum: 1% in hyperlipidemic diet, 4 weeks; for change in vivo at 1 % in diet: Rattus norvegicus, po, 672 h; for HDL-C rise compared with normal diet group: versus normal diet group; for TG % of diff. (Table 20) / TG Diff. (Table 20): Table 20, versus control group
Method: Pharmacological test method B for anti-hyperlipidemic acitivity (the term "method B" was used in the present specification)
(§1) Male Wistar strain rats (100±1 g, each 8 rats were formed into a group except that the control group fed with a hyperlipidemic diet was formed of 16 rats) were used as test animals. A powdery diet (CE-2, supplied by Clea Japan, Inc.) was used as ordinary diet. The hyperlipidemic diet was prepared by fortifying the ordinary diet with cholesterol (1%) and cholic acid (0.5%). Each test compound (1%) for administration was admixed with the hyperlipidemic diet. Each two rats were kept in a cage and given the prescribed diet and water ad libitum. Thus the rats were fed for 4 weeks at a constant temperature of 23±1° C. and a constant R.H. of 55±5%. Finally, the rats were fasted from food except water for 16 hours (from 4 p.m. of the 28th test day to 8 a.m. of the 29th test day), and under anesthesia with pentbarbital sodium (tradename: Nembutal), blood was taken from each rat through the descending abdominal arota. Then, TC, HDL-C, TG, PL, and LPO in the serum were measured in the following manner.
A TC kit-K (supplied by Nippon Shoji Kaisha, Ltd.) was used. The principle of this determination is as follows: The ester of cholesterol in the serum is hydrolyzed with cholesterol-ester hydrolase into free cholesterol and fatty acids. All the free cholesterol is oxidized with cholesterol oxydase to form Δ^4 -cholestenone and hydrogen peroxide. Phenol and 4-aminoantipyrin are oxidatively condensed together by the formed hydrogen peroxide and peroxydase. The produced red quinone coloring matter is measured by colorimetry for absorbance at 500 nm using a spectrophotometer, thereby determining the TC:
The color-developing liquid (3.0 ml) is well mixed with the sample serum (0.02 ml). The mixture once heated at 37° C. for 15 minutes, is measured for absorbance at 500 nm with a spectrophotometer. The found absorbance is denoted by EA. On the other hand, the color-developing liquid (3.0 ml) is well mixed with the standard solution. The mixture is treated and measured for absorbance at 500 nm in the same manner as the above. This found absorbance is denoted by ES. Both EA and ES are determined with reference to the value of the blank test conducted using the color-developing liquid (3.0 ml) alone. [formula]
An HDL-C kit-N (supplied by Nippon Shoji Kaisha, Ltd.) was used. […] (VLDL) and lo density lipoprotein (LDL) in the serum is precipitated by the action of heparin. The precipitate is separated by centrifugation. High density lipoprotein (HDL) is dissolved in the separated supernatant. Esters of cholesterol in this fraction is hydrolyzed with cholesterol-ester hydrolase into free cholesterol and fatty acids. All the free cholesterol is oxidized with cholesterol oxydase to form Δ^4 -cholestenone and hydrogen peroxide. Phenol and 4-aminoantipyrine are oxidatively condensed together by the formed hydrogen peroxide and peroxydase. The produced red quinone coloring matter is measured by colorimetry for absorbance at 500 nm using a spectrophotometer, thereby determining the HDL-C.
A PL kit-K (supplied by Nippon Shoji Kaisha, Ltd.) was used for the determination. Lecithin, sphingomyelin, and lysolecithin are decomposed by phospholipase D into choline and phosphatidic acid, N-acylsphingosyl phosphate, or lysophosphatidic acid, respectively. The resulting choline is quantitatively decomposed by choline oxydase into hydrogen peroxide and betaine. With this hydrogen peroxide, and aid of peroxydase, phenol and 4-aminoantipyrin are condensed into red quinone pigment, then the absorbance at 500 nm of which is measured with a spectrophotometer, thereby determining the PL. […]

[2] = Body weight of rats in method B; parameters: species or system male Wistar strain rats; settings: rat, in vivo
Method: as §1

[3] = versus control group, read-out: AI % of diff.
[4] = versus control group, read-out: HDL-C % of diff.
[5] = versus control group, read-out: LPO % of diff.
[6] = versus control group, read-out: PL % of diff.
[7] = versus control group, read-out: TG % of diff.

SMILES	AI [(TC - HDL-C)/(HDL-C)] [1]	HDL-C in serum [1]	LPO in serum [1]	PL in serum [1]	TC in serum [1]	TG in serum [1]	Body weight during feed period, 1st day [2]	Body weight during feed period, 8th day [2]	Body weight during feed period, 15th day [2]	Body weight during feed period, 22nd day [2]	Body weight during feed period, 28th day [2]	Body weight just before blood sampling, 29th day [2]	change in vivo at 1 % in diet [1, 3]	change in vivo at 1 % in diet [1, 4]	change in vivo at 1 % in diet [1, 5]	change in vivo at 1 % in diet [1, 6]	change in vivo at 1 % in diet [1, 7]	AI Diff. ([1]; versus control group)	HDL-C Diff. ([1]; versus control group)	LPO Diff. ([1]; versus control group)	other results
CC(C)=CCCC(C)C1CCC2(C)C3CCC4C(C)(C)C(OC(=O)C(C)=Cc5ccc(N)cc5)CCC45CC35CCC12C (stereo not drawn) [Example 205, Cycloartenyl ester of p-amino-α-methylcinnamic acid]	4.144	37.4 mg/dL	2.02 nmol/mL	113.1 mg/dL	192.4 mg/dL	60.3 mg/dL	105 ± 3.7 g	142 ± 9.8 g	188 ± 13.2 g	238 ± 19.8 g	267 ± 20.4 g	256 ± 19.2 g	–	–	–	–	–	–	–	–	–
CC(=Cc1cccc(N)c1)C(=O)OC1CCC23CC24CCC2(C)C(C(C)CCC(C)=C(C)C)CCC2(C)C4CCC3C1(C)C (stereo not drawn) [Example 212, Cyclobranyl ester of m-amino-α-methylcinnamic acid]	4.242	37.2 mg/dL	2.01 nmol/mL	112.9 mg/dL	195.0 mg/dL	59.7 mg/dL	104 ± 3.3 g	143 ± 9.2 g	190 ± 18.6 g	239 ± 15.8 g	268 ± 21.4 g	257 ± 19.0 g	–	–	–	–	–	–	–	–	–
COc1cc(C=C(C)C(=O)OC2CCC34CC35CCC3(C)C(C(C)CCC=C(C)C)CCC3(C)C5CCC4C2(C)C)ccc1N (stereo not drawn) [Example 189, Cycloartenyl ester of 4-amino-3-methoxy-α-methylcinnamic acid]	4.071	35.4 mg/dL	2.05 nmol/mL	115.0 mg/dL	179.5 mg/dL	58.4 mg/dL	104 ± 3.8 g	142 ± 8.1 g	188 ± 12.6 g	239 ± 20.6 g	268 ± 22.7 g	256 ± 20.2 g	–	–	–	–	–	–	–	–	–
COc1cc(C=C(C)C(=O)OC2CCC34CC35CCC3(C)C(C(C)CCC(C)=C(C)C)CCC3(C)C5CCC4C2(C)C)ccc1O (stereo not drawn) [Example 116, cyclobranyl ester of 4-hydroxy-3-methoxy-α-methylcinnamic acid]	1.282	61.4 mg/dL	2.11 nmol/mL	97.4 mg/dL	140.1 mg/dL	54.0 mg/dL	106 ± 5.9 g	146 ± 10.0 g	193 ± 17.5 g	244 ± 15.8 g	273 ± 20.4 g	260 ± 19.0 g	-94.1%	355%	-25.2%	-30.5%	-10.8%	-20.48	+47.9 mg/dl	-0.71 nmol/mL	PL Diff. ([1]; versus control group): -42.7 mg/dL; TC % of diff. ([1]; versus control group): -54.4%; TC Diff. ([1]; versus control group): -167.2 mg/dL; TG Diff. ([1]; versus control group): -6.1 mg/dL; HDL-C rise compared with normal diet group [1]: remarkable rises
C=C(CCC(C)C1CCC2(C)C3CCC4C(C)(C)C(OC(=O)C(C)=Cc5ccc(OC(=O)CC)c(OC)c5)CCC45CC35CCC12C)C(C)C (stereo not drawn) [Example 117, 24-methylenecycloartanyl ester of 3-methoxy-4-propionyloxy-α-methylcinnamic acid]	–	–	–	–	–	–	–	–	–	–	–	–	-64.3%	63.1%	-24.5%	-28.3%	-21.6%	-16.17	+10.1 mg/dl	-0.85 nmol/mL	TG % of diff. (Table 20) [1]: -37.7%; TG Diff. (Table 20) [1]: -157.9 mg/dL; PL Diff. ([1]; versus control group): -50.0 mg/dL; TG Diff. ([1]; versus control group): -17.6 mg/dL
COc1cc(C=CC(=O)OC2CCC34CC35CCC3(C)C(C(C)CCC(C)=C(C)C)CCC3(C)C5CCC4C2(C)C)ccc1N (stereo not drawn) [Example 178, Cyclobranyl ester of 4-amino-3-methoxycinnamic acid]	–	–	–	–	–	–	–	–	–	–	–	–	-88.9%	215%	-36.6%	-28.2%	-28%	-22.35	+34.4 mg/dl	-1.27 nmol/mL	TG % of diff. (Table 20) [1]: -54.2%; TG Diff. (Table 20) [1]: -226.9 mg/dL; PL Diff. ([1]; versus control group): -49.8 mg/dL; TG Diff. ([1]; versus control group): -22.8 mg/dL; HDL-C rise compared with normal diet group [1]: remarkable rises
C=C(CCC(C)C1CCC2(C)C3CCC4C(C)(C)C(OC(=O)C(C)=Cc5cccc(N)c5)CCC45CC35CCC12C)C(C)C (stereo not drawn) [Example 213, 24-Methylenecycloartanyl ester of m-amino-α-methylcinnamic acid]	–	–	–	–	–	–	–	–	–	–	–	–	-93%	328%	-38.9%	-34.8%	-29.2%	-23.38	+52.4 mg/dl	-1.35 nmol/mL	TG % of diff. (Table 20) [1]: -54.7%; TG Diff. (Table 20) [1]: -229.0 mg/dL; PL Diff. ([1]; versus control group): -61.5 mg/dL; TG Diff. ([1]; versus control group): -23.7 mg/dL; HDL-C rise compared with normal diet group [1]: remarkable rises
